Assay results as given in article PMC12645437, “Orthogonal IMiD-Degron Pairs Induce Selective Protein Degradation in Cells” (ACS Chemical Biology, 2025).
Read-outs that look alike come from different tables or passages of the source. One block for each compound: values may come before it.

Columns and labels:
[1] = system: Jurkat cells; experiment: TMTpro quantitative proteomics, 16 h; settings: for Scaled value (to 150), replicate 01 / Scaled value (to 150), replicate 02 / Scaled value (to 150), replicate 03 / Log2(ratio) compound/UT / Ratio to untreated, replicate 01 / Ratio to untreated, replicate 02 / Ratio to untreated, replicate 03: Jurkat whole cell extracts; for Scaled value (to 150), replicate 01 / Scaled value (to 150), replicate 02 / Scaled value (to 150), replicate 03: TMTpro SPS-MS3; for Log2(ratio) compound/UT: Welch's t-test with FDR correction
[2] = target: T1, Q147A mutant degron (ANQS) fused to EGFP (Homo sapiens, UniProt Q96SW2+Q9UKT9, Q147A); experiment: Ratiometric EGFP:mCherry flow cytometry degradation assay, 18 h; assay type: cell-based; settings: Jurkat, read-out: DMax Q147A/%
T1 construct: pLVX-Sprout-IKZF3 130-189aa Q147A (ANQS); expressed in transfected cells
T1 sequence (Q9UKT9 130-189 Q147A): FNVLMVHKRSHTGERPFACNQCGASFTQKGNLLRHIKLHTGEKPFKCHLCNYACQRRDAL
T1 sequence (Q96SW2 whole entry, the tested form may be a part): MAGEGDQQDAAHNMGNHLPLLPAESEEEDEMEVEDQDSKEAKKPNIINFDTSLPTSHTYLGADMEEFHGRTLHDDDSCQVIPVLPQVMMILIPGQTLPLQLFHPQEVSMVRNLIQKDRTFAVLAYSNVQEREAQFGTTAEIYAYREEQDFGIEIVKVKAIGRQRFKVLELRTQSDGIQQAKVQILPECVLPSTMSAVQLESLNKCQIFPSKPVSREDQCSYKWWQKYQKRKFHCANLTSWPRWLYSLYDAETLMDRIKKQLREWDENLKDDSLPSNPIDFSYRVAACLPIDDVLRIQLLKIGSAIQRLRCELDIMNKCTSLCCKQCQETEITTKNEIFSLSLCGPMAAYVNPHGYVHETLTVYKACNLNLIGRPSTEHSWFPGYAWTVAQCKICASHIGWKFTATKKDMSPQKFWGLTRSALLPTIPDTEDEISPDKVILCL
T1 sequence (Q16531 whole entry partner, the tested form may be a part): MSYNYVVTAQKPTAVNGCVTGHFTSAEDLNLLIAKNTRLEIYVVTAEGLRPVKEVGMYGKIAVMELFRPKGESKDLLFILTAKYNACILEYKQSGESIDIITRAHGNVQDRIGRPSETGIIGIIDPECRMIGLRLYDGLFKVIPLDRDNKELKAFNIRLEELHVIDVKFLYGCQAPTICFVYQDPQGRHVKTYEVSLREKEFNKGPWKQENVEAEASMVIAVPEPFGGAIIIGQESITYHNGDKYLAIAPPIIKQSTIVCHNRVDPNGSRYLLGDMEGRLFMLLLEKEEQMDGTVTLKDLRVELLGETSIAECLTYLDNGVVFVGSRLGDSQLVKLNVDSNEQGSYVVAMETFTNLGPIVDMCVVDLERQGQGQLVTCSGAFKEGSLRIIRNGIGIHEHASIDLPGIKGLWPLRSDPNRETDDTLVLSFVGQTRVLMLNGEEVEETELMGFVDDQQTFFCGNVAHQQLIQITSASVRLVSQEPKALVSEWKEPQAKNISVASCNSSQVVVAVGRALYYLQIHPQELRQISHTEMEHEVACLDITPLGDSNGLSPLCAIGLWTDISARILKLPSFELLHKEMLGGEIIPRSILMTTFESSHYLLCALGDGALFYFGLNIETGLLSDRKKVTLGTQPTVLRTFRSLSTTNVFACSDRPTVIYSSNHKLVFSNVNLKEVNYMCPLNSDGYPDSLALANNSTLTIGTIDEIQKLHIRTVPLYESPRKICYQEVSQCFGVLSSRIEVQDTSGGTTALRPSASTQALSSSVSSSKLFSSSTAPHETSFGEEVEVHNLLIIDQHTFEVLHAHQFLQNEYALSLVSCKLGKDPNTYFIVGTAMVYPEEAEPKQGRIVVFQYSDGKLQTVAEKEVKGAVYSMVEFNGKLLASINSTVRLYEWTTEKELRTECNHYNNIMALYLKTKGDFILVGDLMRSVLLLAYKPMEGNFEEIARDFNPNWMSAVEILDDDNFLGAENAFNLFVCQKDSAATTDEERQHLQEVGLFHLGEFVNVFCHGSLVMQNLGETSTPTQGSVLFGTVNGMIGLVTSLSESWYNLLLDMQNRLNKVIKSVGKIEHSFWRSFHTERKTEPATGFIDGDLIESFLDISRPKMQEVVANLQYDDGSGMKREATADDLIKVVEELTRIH

[3] = protein AADAT isoform 2 (Q8N5Z0-2)

Structure (SMILES): CN1CCN(c2ccc3c(c2)C(=O)N(C2CCC(=O)NC2=O)C3=O)CC1 (centres unmarked) [Cmpd23]
Scaled value (to 150), replicate 01 ([1]; protein A2M (P01023)): 8.458
Scaled value (to 150), replicate 02 ([1]; protein A2M (P01023)): 9.12
Scaled value (to 150), replicate 03 ([1]; protein A2M (P01023)): 12.2998
Scaled value (to 150), replicate 01 ([1]; protein AAAS (Q9NRG9)): 10.4661
Scaled value (to 150), replicate 02 ([1]; protein AAAS (Q9NRG9)): 9.826
Scaled value (to 150), replicate 03 ([1]; protein AAAS (Q9NRG9)): 10.0212
Scaled value (to 150), replicate 01 ([1]; protein AACS (Q86V21)): 9.826
Scaled value (to 150), replicate 02 ([1]; protein AACS (Q86V21)): 9.749
Scaled value (to 150), replicate 03 ([1]; protein AACS (Q86V21)): 9.8
Scaled value (to 150), replicate 01 [1, 3]: 10.0867
Scaled value (to 150), replicate 02 [1, 3]: 10.5129
Scaled value (to 150), replicate 03 [1, 3]: 9.582
Log2(ratio) compound/UT ([1]; protein A2M (P01023)): -0.3516
Ratio to untreated, replicate 01 ([1]; protein A2M (P01023)): 0.6228
Ratio to untreated, replicate 02 ([1]; protein A2M (P01023)): 0.6715
Ratio to untreated, replicate 03 ([1]; protein A2M (P01023)): 0.9057
Log2(ratio) compound/UT ([1]; protein AAAS (Q9NRG9)): -0.01283
Ratio to untreated, replicate 01 ([1]; protein AAAS (Q9NRG9)): 1.017
Ratio to untreated, replicate 02 ([1]; protein AAAS (Q9NRG9)): 0.9547
Ratio to untreated, replicate 03 ([1]; protein AAAS (Q9NRG9)): 0.9736
Log2(ratio) compound/UT ([1]; protein AACS (Q86V21)): -0.01545
Ratio to untreated, replicate 01 ([1]; protein AACS (Q86V21)): 0.9811
Ratio to untreated, replicate 02 ([1]; protein AACS (Q86V21)): 0.9735
Ratio to untreated, replicate 03 ([1]; protein AACS (Q86V21)): 0.9785
Log2(ratio) compound/UT [1, 3]: 0.05616
Ratio to untreated, replicate 01 [1, 3]: 1.033
Ratio to untreated, replicate 02 [1, 3]: 1.076
Ratio to untreated, replicate 03 [1, 3]: 0.9809

Structure (SMILES): O=C1CCC(N2C(=O)c3cccc(O)c3C2=O)C(=O)N1 (centres unmarked) [Compound 4]
Dmax [2]: 46%

Structure (SMILES): COc1cccc2c1C(=O)N(C1CCC(=O)NC1=O)C2=O (centres unmarked) [Compound 6]
Dmax ([2]; 18 h, Fig 2B): 75%

Structure (SMILES): COc1ccc2c(c1)C(=O)N(C1CCC(=O)NC1=O)C2=O (centres unmarked) [Compound 7]
Dmax ([2]; 18 h, Fig 2B): 82%

Structure (SMILES): O=C1CCC(N2C(=O)c3cccc(Cl)c3C2=O)C(=O)N1 (centres unmarked) [Compound 10]
Dmax ([2]; 18 h, Fig 2B): 88%

Structure (SMILES): O=C1CCC(N2C(=O)c3cccc(Br)c3C2=O)C(=O)N1 (centres unmarked) [Compound 12]
Dmax ([2]; 18 h, Fig 2B): 66%

Structure (SMILES): O=C1CCC(N2C(=O)c3ccc(Br)cc3C2=O)C(=O)N1 (centres unmarked) [Compound 13]
Dmax ([2]; 18 h, Fig 2B): 56%

Structure (SMILES): O=C1CCC(N2C(=O)c3cccc(I)c3C2=O)C(=O)N1 (centres unmarked) [Compound 14]
Dmax ([2]; 18 h, Fig 2B): 86%

Structure (SMILES): Cc1ccc2c(c1)C(=O)N(C1CCC(=O)NC1=O)C2=O (centres unmarked) [Compound 17]
Dmax ([2]; 18 h, Fig 2B): 72%

Structure (SMILES): O=C1CCC(N2C(=O)c3ccc(C(F)(F)F)cc3C2=O)C(=O)N1 (centres unmarked) [Compound 18]
Dmax ([2]; 18 h, Fig 2B): 91%

Structure (SMILES): O=C1CCC(N2C(=O)c3ccc(-c4ccccc4)cc3C2=O)C(=O)N1 (centres unmarked) [Compound 20]
Dmax ([2]; 18 h, Fig 2B): 66%

Structure (SMILES): CN(C)c1ccc2c(c1)C(=O)N(C1CCC(=O)NC1=O)C2=O (centres unmarked) [Compound 21]
Dmax ([2]; 18 h, Fig 2B): 86%

Structure (SMILES): O=C1CCC(N2C(=O)c3cccc(NCc4cccnc4)c3C2=O)C(=O)N1 (centres unmarked) [Compound 27]
Dmax ([2]; 18 h, Fig 2B): 93%

Structure (SMILES): Nc1cccc2c1CN(C1CCC(=O)NC1=O)C2=O (centres unmarked) [lenalidomide]
Scaled value (to 150), replicate 01 ([1]; protein A2M (P01023)): 10.2473
Scaled value (to 150), replicate 02 ([1]; protein A2M (P01023)): 8.044
Scaled value (to 150), replicate 03 ([1]; protein A2M (P01023)): 8.233
Scaled value (to 150), replicate 01 ([1]; protein AAAS (Q9NRG9)): 9.75
Scaled value (to 150), replicate 02 ([1]; protein AAAS (Q9NRG9)): 10.198
Scaled value (to 150), replicate 03 ([1]; protein AAAS (Q9NRG9)): 10.3119
Scaled value (to 150), replicate 01 ([1]; protein AACS (Q86V21)): 10.2128
Scaled value (to 150), replicate 02 ([1]; protein AACS (Q86V21)): 10.0368
Scaled value (to 150), replicate 03 ([1]; protein AACS (Q86V21)): 9.972
Scaled value (to 150), replicate 01 [1, 3]: 9.894
Scaled value (to 150), replicate 02 [1, 3]: 10.004
Scaled value (to 150), replicate 03 [1, 3]: 10.2911
proteins significantly degraded (quantitative proteomics) ([1]; Jurkat, 1 μM, 16 h, Welch's t test): at least 6 proteins

The next lines start with the values.

Dmax ([2]; 18 h, Fig 2B): 90%
Structure (SMILES): Nc1ccc2c(c1)C(=O)N(C1CCC(=O)NC1=O)C2=O (centres unmarked) [Compound 3]

Dmax ([2]; 18 h, Fig 2B): 57%
Structure (SMILES): O=C1CCC(N2C(=O)c3cccc(F)c3C2=O)C(=O)N1 (centres unmarked) [Compound 8]

Dmax ([2]; 18 h, Fig 2B): 89%
Structure (SMILES): O=C1CCC(N2C(=O)c3ccc(F)cc3C2=O)C(=O)N1 (centres unmarked) [Compound 9]

Dmax ([2]; 18 h, Fig 2B): 37%
Structure (SMILES): O=C1CCC(N2C(=O)c3ccc(Cl)cc3C2=O)C(=O)N1 (centres unmarked) [Compound 11]

Dmax ([2]; 18 h, Fig 2B): 77%
Structure (SMILES): O=C1CCC(N2C(=O)c3ccc(I)cc3C2=O)C(=O)N1 (centres unmarked) [Compound 15]

Dmax ([2]; 18 h, Fig 2B): 87%
Structure (SMILES): Cc1cccc2c1C(=O)N(C1CCC(=O)NC1=O)C2=O (centres unmarked) [Compound 16]

Dmax ([2]; 18 h, Fig 2B): 96%
Structure (SMILES): CCNc1cccc2c1C(=O)N(C1CCC(=O)NC1=O)C2=O (centres unmarked) [Compound 24]

Dmax ([2]; 18 h, Fig 2B): 95%
Structure (SMILES): O=C1CCC(N2C(=O)c3cccc(NCc4ccccc4)c3C2=O)C(=O)N1 (centres unmarked) [Compound 26]

Dmax ([2]; 18 h, Fig 2B): 94%
Structure (SMILES): Cc1ccccc1CNc1cccc2c1C(=O)N(C1CCC(=O)NC1=O)C2=O (centres unmarked) [Compound 28]
